Assay [1] addresses isolated recombinant JAK1 kinase domain (Homo sapiens, UniProt P23458). Put plainly: JAK enzyme assay (Caliper LabChip), JAK1 kinase domain. The format is biochemical. The following applies: ATP 25 μM; 1.5 nM JAK1; Morrison tight binding model.
The subject of assay [2] is JAK1-dependent STAT6 phosphorylation downstream of IL-13 stimulation, BEAS-2B cells. Put plainly: JAK1 pathway assay in cell lines: P-STAT6 in BEAS-2B cells + IL13. The format is cell-based. The following applies: BEAS-2B human bronchial epithelial cells, 1 hr compound preincubation, read-out: P-STAT6 BEAS2B + IL13 IC50. An outline of the steps:
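BEAS-2B human bronchial epithelial cells in complete growth medium, preincubated with compound for 1 hr at 37 °C (0.2% DMSO). Stimulation with IL-13 at EC90 for 15 min at 37 °C. Phospho-STAT6 measured in lysates by MSD; EC50 is the concentration giving 50% inhibition versus DMSO control.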

Assay [3] has as its target isolated recombinant JAK2 kinase domain (Homo sapiens, UniProt O60674). Put plainly: JAK enzyme assay (Caliper LabChip), JAK2 kinase domain. The settings on record: ATP 25 μM, 0.2 nM JAK2, Morrison tight binding model.

SMILES strings stand for the structures. Read-outs that look alike come from different tables or passages of the source.

Chain of isolated recombinant JAK2 kinase domain (O60674 849-1124 limits assumed): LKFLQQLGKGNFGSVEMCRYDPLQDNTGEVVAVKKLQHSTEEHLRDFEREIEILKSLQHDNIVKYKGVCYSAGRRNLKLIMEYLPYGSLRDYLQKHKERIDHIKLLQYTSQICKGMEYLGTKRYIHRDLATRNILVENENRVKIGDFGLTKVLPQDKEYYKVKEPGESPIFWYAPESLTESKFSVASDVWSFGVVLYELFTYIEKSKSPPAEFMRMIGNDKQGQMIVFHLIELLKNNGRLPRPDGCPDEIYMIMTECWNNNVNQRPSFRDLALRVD
Chain of isolated recombinant JAK1 kinase domain (P23458 875-1153 limits assumed): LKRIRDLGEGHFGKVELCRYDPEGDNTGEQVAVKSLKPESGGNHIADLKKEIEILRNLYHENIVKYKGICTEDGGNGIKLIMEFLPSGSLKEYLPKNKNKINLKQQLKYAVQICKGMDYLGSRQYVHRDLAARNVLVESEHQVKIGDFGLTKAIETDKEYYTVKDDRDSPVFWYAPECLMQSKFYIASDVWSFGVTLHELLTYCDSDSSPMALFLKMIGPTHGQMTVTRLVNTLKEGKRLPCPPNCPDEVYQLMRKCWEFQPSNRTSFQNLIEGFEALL

In general, Ki refers to the dissociation constant of the complex between target and ligand, obtained from inhibition or displacement. Broadly, the IC50 is the concentration at which inhibition is half-maximal. As for `O=C(Nc1cn(C2CN(C3CC(O)C3)C2)nc1-c1cc(SC2COC2)ccc1OC(F)F)c1cnn2cccnc12` (single isomer, unassigned) [Example 40, N-[3-[2-(difluoromethoxy)-5-(oxetan-3-ylsulfanyl)phenyl]-1-[1-(3-hydroxycyclobutyl)azetidin-3-yl]pyrazol-4-yl]pyrazolo[1,5-a]pyrimidine-3-carboxamide], the Ki in assay [1] is 1180 pM; in assay [3], 1020 pM. For the same compound, the IC50 in assay [2] is 45000 pM.
With `O=C(Nc1cn(CC(=O)N2CCCCC2)nc1-c1cc(SC2COC2)ccc1OC(F)F)c1cnn2cccnc12` [Example 28, N-[3-[2-(difluoromethoxy)-5-(oxetan-3-ylsulfanyl)phenyl]-1-[2-oxo-2-(1-piperidyl)ethyl]pyrazol-4-yl]pyrazolo[1,5-a]pyrimidine-3-carboxamide], the Ki in assay [1] was determined as 410 pM; in assay [3], 960 pM. Besides, in assay [2] (Homo sapiens, BEAS-2B, 1 h), the IC50 amounted to 24000 pM.
Regarding `O=C(Nc1cn(Cc2cn(C3CCN([C@H]4CCOC4)CC3)nn2)nc1-c1cc(SC2CC2)ccc1OC(F)F)c1cnn2cccnc12` (stereo in doubt) [Example 13, N-[3-[5-cyclopropylsulfanyl-2-(difluoromethoxy)phenyl]-1-[[1-[1-[rac-(3S)-tetrahydrofuran-3-yl]-4-piperidyl]triazol-4-yl]methyl]pyrazol-4-yl]pyrazolo[1,5-a]pyrimidine-3-carboxamide], the results for the Ki in assay [1] and in assay [3] were 560 pM and 360 pM, respectively. In addition, the IC50 in assay [2] (Homo sapiens, BEAS-2B, 1 h) is 17000 pM.
With `CSc1ccc(OC(F)F)c(-c2nn(CC(=O)N(C)C)cc2NC(=O)c2cnn3cccnc23)c1` [Example 44], the Ki in assay [1] amounted to 170 pM; in assay [3], 240 pM. For the same compound, in assay [2] (Homo sapiens, BEAS-2B, 1 h), the half-inhibitory concentration (IC50) was 10000 pM.
On to `CSc1ccc(OC(F)F)c(-c2nn(CC(=O)N3CCC(O)CC3)cc2NC(=O)c2cnn3cccnc23)c1` [Example 23, N-[3-[2-(difluoromethoxy)-5-methylsulfanyl-phenyl]-1-[2-(4-hydroxy-1-piperidyl)-2-oxo-ethyl]pyrazol-4-yl]pyrazolo[1,5-a]pyrimidine-3-carboxamide], for which the Ki in assay [1] is 350 pM; in assay [3] it was 550 pM. Besides, the IC50 in assay [2] (Homo sapiens, BEAS-2B, 1 h) was determined as 47000 pM.

(Values after patent US20220024945A1, “THERAPEUTIC COMPOUNDS AND COMPOSITIONS, AND METHODS OF USE THEREOF” (Genentech, Inc., priority 2017, published 2022).)
